Results from PubChem BioAssay (NCI).
Values joined by “and” are separate entries in the source; they are usually repeats but may differ in a detail not shown here. Identical values can stand only once.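 Five compound concentrations were applied to cells in 96-well plates for 48 hours; endpoints were derived by simple linear interpolation of the resulting dose-response curve. GI50: concentration for 50% inhibition of growth. TGI denotes the concentration required for complete inhibition of growth.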

How the values were obtained:
Experiment in all cases: inhibition of tumour cell growth, NCI panel, 48 h
NCI-H226 lung = test system: NCI-H226 lung
HOP-92 NSCLC = test system: HOP-92 NSCLC
OVCAR-8 ovarian = test system: OVCAR-8 ovarian
SF-539 CNS = test system: SF-539 CNS
NCI/ADR-RES ovarian = test system: NCI/ADR-RES ovarian
UACC-62 melanoma = test system: UACC-62 melanoma
SK-MEL-2 melanoma = test system: SK-MEL-2 melanoma
MALME-3M melanoma = test system: MALME-3M melanoma
PC-3 prostate = test system: PC-3 prostate
M14 melanoma = test system: M14 melanoma

Structure (SMILES) | GI50 (NCI-H226 lung) | TGI (NCI-H226 lung) | GI50 (HOP-92 NSCLC) | TGI (HOP-92 NSCLC) | GI50 (OVCAR-8 ovarian) [µM] | TGI (OVCAR-8 ovarian) | GI50 (SF-539 CNS) | TGI (SF-539 CNS) | GI50 (NCI/ADR-RES ovarian) [µM] | TGI (NCI/ADR-RES ovarian) | GI50 (UACC-62 melanoma) | TGI (UACC-62 melanoma) | GI50 (SK-MEL-2 melanoma) [µM] | TGI (SK-MEL-2 melanoma) | GI50 (MALME-3M melanoma) | TGI (MALME-3M melanoma) | GI50 (PC-3 prostate) | TGI (PC-3 prostate) | TGI (M14 melanoma) | GI50 (M14 melanoma) [µM]
COc1ccc(CCN2CCC(CN(C)Cc3cnn(-c4ccccc4)c3)CC2)cc1 | 32.5 µM | > 100 µM | 4.61 µM | 19.3 µM | 16.5 | 37.5 µM | 2.77 µM | 8.08 µM | 26.7 | > 100 µM | 2.63 µM | 7.36 µM | 17.3 | 32.8 µM | 2.08 µM | 4.29 µM | 25.1 µM | > 100 µM | – | –
COc1cc2c(c(OC)c1OC)-c1ccc(N=NC(N)=S)c(=O)cc1[C@@H](NC(C)=O)CC2 | 2.01 µM | > 29.4 µM | 1.97 µM | 98.8 µM | 2.19 | > 100 µM | 0.311 µM | – | 17.5 | 49.1 µM | 0.646 µM | > 100 µM | 0.393 | > 100 µM | – | > 100 µM | 0.617 µM | > 100 µM | – | –
CC1=Nc2c([nH]c(=S)[nH]c2=O)NC(c2c(Cl)cccc2Cl)C1 (stereo not drawn) | – | 15 µM | – | 17.2 µM | – | 1.85 µM | – | 4.2 µM | – | 0.412 µM | – | 4.45 µM | – | 32.9 µM | – | 12.9 µM | – | 2.6 µM | 6.47 µM | –
CN(C)c1cccc(F)c1C(=O)NC(=O)Nc1ccc(Cl)cc1 | – | > 100 µM | – | > 100 µM | – | > 86.4 µM | – | > 100 µM | – | > 44.4 µM | – | > 100 µM | – | > 67.9 µM | – | > 100 µM | – | > 100 µM | > 100 µM | –
O=C(O)c1c(Br)c(Br)c(Br)c(Br)c1C1c2ccc(O)cc2Oc2cc(O)ccc21 | – | > 100 µM | – | > 100 µM | – | > 100 µM | – | > 100 µM | – | > 100 µM | – | > 100 µM | – | > 100 µM | – | > 100 µM | – | > 100 µM | > 100 µM | –
Cc1[nH]c2cc(F)ccc2c1-c1nc2c3cccnc3c3ncccc3c2[nH]1 | 0.168 µM | 0.812 µM | 0.204 µM | 1.41 µM | 0.216 | 1.22 µM | 0.287 µM | 1.29 µM | 0.55 | 5.37 µM | – | – | 0.504 | 1.75 µM | 0.202 µM | 0.769 µM | 0.183 µM | 2.93 µM | 0.667 µM | 0.187
COc1cc(C)c2sc3ccccc3c(=O)c2c1NCCN(C)C | 2.3 µM | 6.81 µM | 1.51 µM | 8.64 µM | 5.44 | 19.1 µM | 4.73 µM | 17.4 µM | 12.4 | 27 µM | 1.87 µM | 3.8 µM | 6.64 | 19.6 µM | 2.11 µM | 5.39 µM | 4.28 µM | 17.4 µM | 4.33 µM | 2.16
CC(=O)O[C@H]1CC[C@@]2(C)C(=C/C(=N/OCCN3CCCC3)[C@H]3[C@@H]4CC[C@H](OC(C)=O)[C@@]4(C)CC[C@@H]32)C1 | > 100 µM | > 100 µM | 16.7 µM | 96.5 µM | > 100 | > 100 µM | > 100 µM | > 100 µM | > 100 | > 100 µM | 45.3 µM | > 100 µM | 26.3 | 65 µM | 18 µM | 36.1 µM | 40.5 µM | > 100 µM | 37.2 µM | 17.6
CCOc1ccc2c(c1)c(CC(=O)O)cn2C | – | > 100 µM | – | > 100 µM | – | > 100 µM | – | > 100 µM | – | > 100 µM | – | > 100 µM | – | > 100 µM | – | > 100 µM | – | > 100 µM | > 100 µM | –
Cc1ccc(C2NC(=O)c3ccccc3N2)c(C)c1 (stereo not drawn) | – | 47.8 µM | – | > 95.7 µM | – | > 71.5 µM | – | 5.15 µM | – | 6.5 µM | – | > 100 µM | – | 37.8 µM | – | > 69.1 µM | – | > 40.2 µM | 40 µM | –
CC1(C)Cc2c(Br)c(Br)c(Br)c(OCC(O)CN3CCN(c4ccccn4)CC3)c2O1 (stereo not drawn) | 15.3 µM | 38.2 µM | 4.87 µM | 19.8 µM | 20.9 | 45.3 µM | 13.6 µM | 29.2 µM | 16.3 | 42.6 µM | 14.1 µM | 28.1 µM | 4.95 | 19.2 µM | 17 µM | 36.9 µM | 5.58 µM | 22.5 µM | 29.7 µM | 13.3
O=C1CC/C(=C/COc2cc(=O)oc3ccccc23)O1 | 17.9 µM | 73.5 µM | 10.5 µM | 26.9 µM | 11.7 | 27.7 µM | 6.01 µM | 21.1 µM | 11.5 | 27.5 µM | 12.2 µM | 25.1 µM | 6.78 | 37.1 µM | 2.87 µM | 17.9 µM | 5.23 µM | 23.9 µM | 13 µM | 2.48
COc1cc2oc3c(c(=O)c2c(O)c1/C=C/C(C)C)C(C=C(C)C)Oc1cc(O)ccc1-3 (stereo not drawn) | – | 32.7 µM | – | 29.3 µM | – | 30.8 µM | – | 31.8 µM | – | 31.1 µM | – | 32.3 µM | – | 29.9 µM | – | 38.9 µM | – | 29.4 µM | 27.3 µM | –
COc1ccc2c(c1)-c1nn(CCCN(C)C)c3ccc([N+](=O)[O-])c(c13)N2 | 0.25 µM and 0.664 µM | 3.75 µM and 6.86 µM | 0.192 µM and 0.764 µM | 1.77 µM and 4.97 µM | – | 4.19 µM and 5.06 µM | 0.163 µM and 0.602 µM | 3.17 µM and 7.49 µM | – | 2.93 µM and 1.42 µM | 0.314 µM and 0.934 µM | 2.44 µM and 5.2 µM | – | 4.28 µM and 4.55 µM | 0.306 µM and 0.908 µM | 2.9 µM and 7.68 µM | 0.112 µM and 0.343 µM | 2.75 µM and 3.93 µM | 4.7 µM and 7 µM | –
C[C@@H](CO)NC(=O)c1cc(-c2ccc(Cl)cc2)nn(-c2cnn(C)c2)c1=O | 16.4 µM | 35.1 µM | 16.6 µM | > 100 µM | 26.3 | > 100 µM | 16 µM | 48.3 µM | 16.7 | 71.9 µM | 14.5 µM | 31.7 µM | 59.9 | > 100 µM | 17.8 µM | 45 µM | 27.8 µM | > 100 µM | > 100 µM | 31.1
